One test deals with Histamine H2 receptor (Homo sapiens, UniProt P25021). The class given is cell membranes, CHO-K1, Membrane. The note with it: cho-k1.
Test [1] deals with Prostaglandin G/H synthase 1 (Homo sapiens, UniProt P23219). The test is described as follows: biochemical. The class given is tissue-based, Platelet. The note with it: for IC50: platelet.
For test [2], the target named is T1, Vasoactive intestinal polypeptide receptor 1 (Homo sapiens, UniProt P32241). Note: in other assays of this panel Not Active means under 50% inhibition at 10 µM.
T1 sequence (P32241 whole entry): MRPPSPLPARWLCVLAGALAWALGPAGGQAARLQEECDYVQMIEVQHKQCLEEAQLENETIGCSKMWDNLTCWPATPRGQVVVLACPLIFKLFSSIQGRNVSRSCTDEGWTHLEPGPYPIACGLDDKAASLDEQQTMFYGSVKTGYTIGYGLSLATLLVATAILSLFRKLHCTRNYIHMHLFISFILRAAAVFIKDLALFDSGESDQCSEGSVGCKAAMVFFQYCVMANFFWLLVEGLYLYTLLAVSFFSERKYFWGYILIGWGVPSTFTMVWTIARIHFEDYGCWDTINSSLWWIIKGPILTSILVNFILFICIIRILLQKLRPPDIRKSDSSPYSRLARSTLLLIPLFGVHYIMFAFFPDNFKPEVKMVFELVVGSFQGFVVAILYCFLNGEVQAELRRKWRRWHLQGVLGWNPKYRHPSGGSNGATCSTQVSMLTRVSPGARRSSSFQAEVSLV
The test is classed as cell membranes, Membrane. To be noted: ht-29.

A short description of test [3]: DRUGMATRIX: Purinergic P2X radioligand binding (ligand: [3H] alpha, beta-Methylene-ATP). The class given is cell membranes, Oryctolagus cuniculus, New Zealand albino, Urinary bladder, Membrane. The note with it: Not Active = under 50% inhibition at 10 µM.
Test [4] concerns the target T2, Amine oxidase [flavin-containing] A (Homo sapiens, UniProt P21397).
T2 sequence (P21397 whole entry): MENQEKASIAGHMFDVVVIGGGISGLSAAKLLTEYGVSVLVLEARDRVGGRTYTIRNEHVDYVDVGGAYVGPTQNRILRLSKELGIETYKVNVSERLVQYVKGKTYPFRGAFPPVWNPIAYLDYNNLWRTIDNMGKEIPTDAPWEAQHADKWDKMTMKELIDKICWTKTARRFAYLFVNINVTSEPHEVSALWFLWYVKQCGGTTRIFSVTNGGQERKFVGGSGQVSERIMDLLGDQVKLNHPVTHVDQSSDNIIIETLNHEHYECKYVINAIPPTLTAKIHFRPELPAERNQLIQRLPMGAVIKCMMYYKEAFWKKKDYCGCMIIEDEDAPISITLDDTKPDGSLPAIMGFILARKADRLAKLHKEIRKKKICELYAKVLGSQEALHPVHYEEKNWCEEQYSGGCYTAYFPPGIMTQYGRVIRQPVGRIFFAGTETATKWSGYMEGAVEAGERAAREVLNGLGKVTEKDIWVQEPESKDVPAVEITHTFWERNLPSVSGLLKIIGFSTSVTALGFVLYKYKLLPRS
The test is described as follows: DRUGMATRIX: Monoamine Oxidase MAO-A enzyme inhibition (substrate: Kynuramine). Further details: species or system BTI-TN-5B1-4. To be noted: Not Active = under 50% inhibition at 10 µM; for IC50: bti-tn-5b1-4; for pIC50: read-out: IC50.

pIC50: −log10 of the molar value.

Prostaglandin G/H synthase 1, sequence (P23219 whole entry): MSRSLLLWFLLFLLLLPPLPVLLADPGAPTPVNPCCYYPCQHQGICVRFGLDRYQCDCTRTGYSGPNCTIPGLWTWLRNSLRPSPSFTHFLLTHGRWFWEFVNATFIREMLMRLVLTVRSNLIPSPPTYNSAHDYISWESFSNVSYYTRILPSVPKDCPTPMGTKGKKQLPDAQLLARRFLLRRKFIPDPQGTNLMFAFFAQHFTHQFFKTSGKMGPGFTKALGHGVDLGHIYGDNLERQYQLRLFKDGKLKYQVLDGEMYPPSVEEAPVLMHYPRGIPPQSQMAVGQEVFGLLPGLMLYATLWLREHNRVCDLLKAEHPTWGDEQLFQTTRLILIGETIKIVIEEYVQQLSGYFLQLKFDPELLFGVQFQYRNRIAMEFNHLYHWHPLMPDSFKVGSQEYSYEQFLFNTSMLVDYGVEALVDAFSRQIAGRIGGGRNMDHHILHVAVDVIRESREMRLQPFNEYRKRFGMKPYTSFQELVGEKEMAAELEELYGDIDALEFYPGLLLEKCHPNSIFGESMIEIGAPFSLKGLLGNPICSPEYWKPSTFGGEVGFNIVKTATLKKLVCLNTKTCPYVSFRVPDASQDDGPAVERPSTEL
Histamine H2 receptor, sequence (P25021 whole entry): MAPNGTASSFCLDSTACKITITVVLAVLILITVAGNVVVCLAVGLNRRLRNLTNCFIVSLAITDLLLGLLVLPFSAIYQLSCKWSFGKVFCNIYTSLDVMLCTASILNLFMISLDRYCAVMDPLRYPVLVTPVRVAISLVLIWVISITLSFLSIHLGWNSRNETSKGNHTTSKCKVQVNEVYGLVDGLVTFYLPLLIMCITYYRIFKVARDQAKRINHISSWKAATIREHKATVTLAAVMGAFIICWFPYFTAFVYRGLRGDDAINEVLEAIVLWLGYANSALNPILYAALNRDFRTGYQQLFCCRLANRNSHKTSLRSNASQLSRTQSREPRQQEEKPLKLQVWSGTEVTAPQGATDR

Regarding `C[C@H]1O[C@@H](n2cc(F)c(=O)[nH]c2=O)[C@H](O)[C@@H]1O` [DOXIFLURIDINE], the IC50 result (on Histamine H2 receptor; in test [1]; in test [2]; in test [3]; in test [4]) was “Not Active” in each case. Further, the Ki entry in test [3] is recorded as “Not Active”.
In the case of `CC[C@H]1CN2CCc3cc(OC)c(OC)cc3[C@@H]2C[C@@H]1C[C@H]1NCCc2cc(OC)c(OC)cc21` [EMETINE], the IC50 result (against Histamine H2 receptor; in test [1]; in test [2]; in test [3]; in test [4]) was “Not Active” throughout. Moreover, the Ki result in test [3] was “Not Active”.
On to `C[C@@H](CO)NC(=O)[C@@H]1C=C2c3cccc4[nH]cc(c34)C[C@H]2N(C)C1` [ERGONOVINE], for which the IC50 entry (at Histamine H2 receptor; in test [1]; in test [2]; in test [3]; in test [4]) was “Not Active” throughout. For the same molecule, in test [3], the Ki result is “Not Active”.
Turning to `COC(=O)CCc1ccc(OCC(O)CNC(C)C)cc1` (stereo not given) [ESMOLOL], the IC50 entry (on Histamine H2 receptor; in test [1]; in test [2]; in test [3]; in test [4]) was “Not Active” each time. The Ki entry in test [3] is “Not Active”.
As for `COc1cc([C@@H]2c3cc4c(cc3[C@@H](O[C@@H]3O[C@@H]5CO[C@@H](C)O[C@H]5[C@H](O)[C@H]3O)[C@H]3COC(=O)[C@H]23)OCO4)cc(OC)c1O` [ETOPOSIDE], the IC50 entry (at Histamine H2 receptor; in test [1]; in test [2]; in test [3]; in test [4]) was “Not Active” throughout. The Ki result in test [3] was “Not Active”.
In the case of `CC(C(=O)O)c1cccc(Oc2ccccc2)c1` (stereo not given) [FENOPROFEN], the IC50 result (at Histamine H2 receptor; in test [2]; in test [3]; in test [4]) was “Not Active” in each case. In addition, in test [1] (read-out: IC50), the pIC50 is 6.84. The Ki entry in test [3] is recorded as “Not Active”.
On to `CC(C)=CCC/C(C)=C/CO` [GERANIOL], for which the IC50 entry (at Histamine H2 receptor; in test [1]; in test [2]; in test [3]; in test [4]) was “Not Active” throughout. Moreover, the Ki result in test [3] is recorded as “Not Active”.
`N=C(N)NC(=O)Cc1c(Cl)cccc1Cl` [GUANFACINE]: the IC50 result (at Histamine H2 receptor; in test [1]; in test [2]; in test [3]; in test [4]) was “Not Active” throughout. In addition, the Ki entry in test [3] is reported as “Not Active”.
On to `Oc1c(Cl)cc(Cl)c(Cl)c1Cc1c(O)c(Cl)cc(Cl)c1Cl` [HEXACHLOROPHENE], for which the IC50 entry (against Histamine H2 receptor; in test [1]; in test [2]; in test [3]; in test [4]) was “Not Active” in each case. In addition, the Ki result in test [3] was “Not Active”.
`NNc1nncc2ccccc12` [HYDRALAZINE]: the IC50 result (on Histamine H2 receptor; in test [1]; in test [2]; in test [3]; in test [4]) was “Not Active” each time. In test [3], the Ki result is given as “Not Active”.
Consider `CC(=O)[C@@]1(O)CC[C@H]2[C@@H]3CCC4=CC(=O)CC[C@]4(C)[C@H]3CC[C@@]21C` [HYDROXYPROGESTERONE], for which the IC50 result (on Histamine H2 receptor; in test [1]; in test [2]; in test [3]; in test [4]) was “Not Active” each time. Further, the Ki entry in test [3] is given as “Not Active”.
Consider `Cc1c(OCC(F)(F)F)ccnc1C[S+]([O-])c1nc2ccccc2[nH]1` (stereo not given) [LANSOPRAZOLE], for which the IC50 entry (against Histamine H2 receptor; in test [1]; in test [2]; in test [3]; in test [4]) was “Not Active” in each case. The Ki entry in test [3] is recorded as “Not Active”.
`O=C(N/N=C/c1ccc([N+](=O)[O-])o1)c1cc([N+](=O)[O-])cc([N+](=O)[O-])c1O` [NIFURSOL]: the IC50 result (against Histamine H2 receptor; in test [1]; in test [2]; in test [3]; in test [4]) was “Not Active” in each case. Besides, the Ki result in test [3] is given as “Not Active”.
`COC(=O)Nc1nc2ccc(C(=O)c3cccs3)cc2[nH]1` [NOCODAZOLE]: the IC50 entry (against Histamine H2 receptor; in test [1]; in test [2]; in test [3]) was “Not Active” in each case. Also, the Ki result in test [3] is given as “Not Active”. For the same molecule, the pIC50 in test [4] was 4.62.
On to `CC(C)NCC(O)COc1cccc2[nH]ccc12` (stereo not given) [PINDOLOL], for which the IC50 entry (against Histamine H2 receptor; in test [1]; in test [2]; in test [3]; in test [4]) was “Not Active” throughout. For the same molecule, the Ki result in test [3] is on record as “Not Active”.
With `CCn1cc(C(=O)O)c(=O)c2cnc(N3CCCC3)nc21` [PIROMIDIC ACID], the IC50 entry (against Histamine H2 receptor; in test [1]; in test [2]; in test [3]; in test [4]) was “Not Active” throughout. Further, in test [3], the Ki entry was “Not Active”.
As to `CCCN(CCC)S(=O)(=O)c1ccc(C(=O)O)cc1` [PROBENECID], the IC50 result (against Histamine H2 receptor; in test [1]; in test [2]; in test [3]; in test [4]) was “Not Active” in each case. Moreover, the Ki entry in test [3] is given as “Not Active”.
Take `CCCNCC(O)COc1ccccc1C(=O)CCc1ccccc1` (stereo not given) [PROPAFENONE]: the IC50 entry (against Histamine H2 receptor; in test [1]; in test [2]; in test [3]; in test [4]) was “Not Active” in each case. Besides, in test [3], the Ki result is reported as “Not Active”.
In the case of `CCCOc1ccc(C(=O)OCCN(CC)CC)cc1N` [PROPARACAINE], the IC50 result (against Histamine H2 receptor; in test [1]; in test [2]; in test [3]) was “Not Active” throughout. For the same molecule, the Ki entry in test [3] is “Not Active”. Further, in test [4], the negative logarithm of the IC50 (pIC50) was 5.75.
Regarding `C[C@@H]1O[C@@H](O[C@@H]2C=C3CC[C@@H]4[C@H](CC[C@]5(C)[C@@H](c6ccc(=O)oc6)CC[C@]45O)[C@@]3(C)CC2)[C@H](O)[C@H](O)[C@H]1O` [PROSCILLARIDIN], the IC50 result (on Histamine H2 receptor; in test [1]; in test [2]; in test [3]; in test [4]) was “Not Active” in each case. The Ki result in test [3] is “Not Active”.

Broadly, the pIC50 is the negative decadic logarithm of the IC50, by convention in mol/L.

(Values after ChEMBL document CHEMBL1909046, “DrugMatrix in vitro pharmacology data”.)
